Columns and labels:
[1] = test system: C57 mice; assay: Forced swimming experiment, oral administration to mice; type: in vivo; details: inhibition of immobility time, C57 mice
Method in brief: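 Male C57 mice (6 weeks) dosed once orally at 20 mg/kg in 0.9% NaCl, tested 1 h and 24 h later after a 10 min pre-swim the day before. Immobility over the last 4 min of a 6 min swim (water 23-25° C); inhibition rate (%) calculated against blank group at each time.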

[2] = In vivo pharmacokinetic experiment in mice; details: C57 mice
[3] = In vivo pharmacokinetic experiment in rats; details: SD rats
Experimental: Healthy male SD rats were randomly divided into groups with 3 rats in each group, and the test compounds were administrated intragastrically or by intravenous injection. See Table 8 below for specific arrangements:
(§1) Each test compound was dissolved in physiological saline to prepare a certain concentration of solution for administration.
One day before administration, the rats were fasted and allowed to drink freely for 12-14 h. The rats were fed 4 h after administration. 0.030 mL of blood was took from each animal each time through the orbit, and anticoagulated with EDTAK2 anticoagulation. The collection time points were as follows: in PO group, 5 min, 10 min, 15 min, 30 min, 1 h, 2 h, 4 h, 6 h, 8 h, 24 h after administration of test substance; in IV group, 2 min, 5 min, 15 min, 30 min, 1 h, 2 h, 4 h, 6 h, 8 h, 24 h after administration of test substance. After blood samples were collected, they were placed on ice and centrifuged to separate the plasma within 30 minutes (centrifugation conditions: 5000 rpm, 10 minutes, 4° C.). The sample were stored at −80° C. before analysis.

[4] = Distribution in mouse brain tissue; type: in vivo, C57 mice
Experimental: Healthy male C57 mice were randomly divided into groups with 3 mice in each group, and the test compound was administrated intragastrically. See Table 10 below for specific arrangements:
as §1
One day before administration, the mice were fasted and allowed to drink freely for 12-14 h. The mice were fed 4 h after administration.
After the animals were bled, the brain tissue was collected. After washing, 50% ice methanol was added for homogenate at 1:4 (m/v). The collection time points was 10 min, 15 min, 30 min, 1 h, 2 h after administration of the test substance; 30.0 μL of tissue sample was taken (the sample was taken out from the refrigerator at −80° C., vortexed for 30 seconds after natural melting at room temperature) and added into a 1.5 mL centrifuge tube. 300.0 μL internal standard solution (30 ng/mL […] acetonitrile solution) was added, the mixture was vortex for 60 seconds and then centrifuged for 3 minutes (centrifugal force was 12000 rpm); 75 μL of the supernatant was taken and transferred to 96-well injection plate loaded with equal volume of water, shaken and mixed well, and subjected to LC-MS/MS analysis, wherein injection volume was 10 μL.

[5] = male, mouse, iv, 5 mg/kg i.v., plasma
[6] = male, mouse, po, 20 mg/kg p.o., plasma
[7] = male, rat, iv, 5 mg/kg i.v., plasma
[8] = male, rat, po, 20 mg/kg p.o., plasma

Compound: Cl.N[C@]1(c2ccc(C(F)(F)F)cc2)CCC[C@H](O)C1=O [Compound 51, (2S,6S)-2-amino-6-hydroxy-2-(4-(trifluoromethyl)phenyl)cyclohexane-1-one hydrochloride]
- 1 h inhibition rate ([1]; forced swimming 1 h after single oral (intragastric) 20 mg/kg): 66.9 ± 0.3%
- 24 h inhibition rate ([1]; forced swimming 24 h after single oral (intragastric) 20 mg/kg): 38.6 ± 2.1%
- AUC0-t ([2]; 5 mg/kg i.v., plasma): 6471 ngh/mL
- AUC0-∞ ([2]; 5 mg/kg i.v., plasma): 6567 ngh/mL
- F ([2]; 20 mg/kg p.o. vs 5 mg/kg i.v.): 68.0%
- AUC0-t ([2]; 20 mg/kg p.o., plasma): 17539 ngh/mL
- AUC0-∞ ([2]; 20 mg/kg p.o., plasma): 17877 ngh/mL
- MRT [2, 5]: 1.23 h
- half-life [2, 5]: 1.79 h
- clearance ([2]; male, mouse, plasma, iv, 5 mg/kg i.v.): 13.5 mL/min/kg
- Vd ([2]; male, mouse, plasma, iv, 5 mg/kg i.v., read-out: Vss): 0.98 L/kg
- Cmax [2, 6]: 7520 ng/mL
- MRT [2, 6]: 3.59 h
- Tmax [2, 6]: 5 min
- half-life [2, 6]: 4.09 h
- AUC0-t ([3]; 5 mg/kg i.v., plasma): 19871 ngh/mL
- AUC0-∞ ([3]; 5 mg/kg i.v., plasma): 20688 ngh/mL
- F ([3]; 20 mg/kg p.o.): 86%
- AUC0-t ([3]; 20 mg/kg p.o., plasma): 68383 ngh/mL
- AUC0-∞ ([3]; 20 mg/kg p.o., plasma): 70298 ngh/mL
- MRT [3, 7]: 6.15 h
- half-life [3, 7]: 5.6 h
- clearance ([3]; male, rat, plasma, iv, 5 mg/kg i.v.): 4.03 mL/min/kg
- Vd ([3]; male, rat, plasma, iv, 5 mg/kg i.v., read-out: Vss): 1.49 L/kg
- Cmax [3, 8]: 9350 ng/mL
- MRT [3, 8]: 6.21 h
- Tmax [3, 8]: 0.33 h
- half-life [3, 8]: 4.74 h
- AUC0-∞ ([4]; C57 mouse brain tissue, 20 mg/kg p.o.): 46324 ng·h/g
- concentration at 15 min ([4]; male, brain, po, C57 mouse, 10 mg/kg p.o., 15 min): 5090 ng/g
- concentration at 10 min ([4]; male, brain, po, C57 mouse, 20 mg/kg p.o. (intragastrically), 10 min): 23500 ng/g
- half-life ([4]; male, po, C57 mouse brain tissue, 20 mg/kg p.o.): 1.36 h

From patent publication US12351565B2, “Aromatic compound and preparation method therefor and use thereof” (SHANGHAI JIANHE PHARMACEUTICAL & TECHNOLOGY CO. LTD., priority 2018, dated 2025)
